Seven molecules from patent publication EP3212201B1, “NUCLEOSIDE KINASE INHIBITORS” (BCI Pharma, priority 2014, dated 2016) can be followed below.

What all share (experiment): FRET-based coupled-enzyme protein kinase inhibition assay
What all share (type): biochemical
Common to all, as to conditions: compound at 10 µM, 1% DMSO

For one assay, the target named is MET (cMet) (Homo sapiens, UniProt P08581). As for the experimental part: (§1) A biochemical assay was then performed in order to measure the protein kinase inhibition. It employed a fluorescence-based coupled-enzyme format and was based on the differential sensitivity of phosphorylated and non-phosphorylated peptides to proteolytic cleavage.
Chain of MET (cMet) (P08581 25-1390): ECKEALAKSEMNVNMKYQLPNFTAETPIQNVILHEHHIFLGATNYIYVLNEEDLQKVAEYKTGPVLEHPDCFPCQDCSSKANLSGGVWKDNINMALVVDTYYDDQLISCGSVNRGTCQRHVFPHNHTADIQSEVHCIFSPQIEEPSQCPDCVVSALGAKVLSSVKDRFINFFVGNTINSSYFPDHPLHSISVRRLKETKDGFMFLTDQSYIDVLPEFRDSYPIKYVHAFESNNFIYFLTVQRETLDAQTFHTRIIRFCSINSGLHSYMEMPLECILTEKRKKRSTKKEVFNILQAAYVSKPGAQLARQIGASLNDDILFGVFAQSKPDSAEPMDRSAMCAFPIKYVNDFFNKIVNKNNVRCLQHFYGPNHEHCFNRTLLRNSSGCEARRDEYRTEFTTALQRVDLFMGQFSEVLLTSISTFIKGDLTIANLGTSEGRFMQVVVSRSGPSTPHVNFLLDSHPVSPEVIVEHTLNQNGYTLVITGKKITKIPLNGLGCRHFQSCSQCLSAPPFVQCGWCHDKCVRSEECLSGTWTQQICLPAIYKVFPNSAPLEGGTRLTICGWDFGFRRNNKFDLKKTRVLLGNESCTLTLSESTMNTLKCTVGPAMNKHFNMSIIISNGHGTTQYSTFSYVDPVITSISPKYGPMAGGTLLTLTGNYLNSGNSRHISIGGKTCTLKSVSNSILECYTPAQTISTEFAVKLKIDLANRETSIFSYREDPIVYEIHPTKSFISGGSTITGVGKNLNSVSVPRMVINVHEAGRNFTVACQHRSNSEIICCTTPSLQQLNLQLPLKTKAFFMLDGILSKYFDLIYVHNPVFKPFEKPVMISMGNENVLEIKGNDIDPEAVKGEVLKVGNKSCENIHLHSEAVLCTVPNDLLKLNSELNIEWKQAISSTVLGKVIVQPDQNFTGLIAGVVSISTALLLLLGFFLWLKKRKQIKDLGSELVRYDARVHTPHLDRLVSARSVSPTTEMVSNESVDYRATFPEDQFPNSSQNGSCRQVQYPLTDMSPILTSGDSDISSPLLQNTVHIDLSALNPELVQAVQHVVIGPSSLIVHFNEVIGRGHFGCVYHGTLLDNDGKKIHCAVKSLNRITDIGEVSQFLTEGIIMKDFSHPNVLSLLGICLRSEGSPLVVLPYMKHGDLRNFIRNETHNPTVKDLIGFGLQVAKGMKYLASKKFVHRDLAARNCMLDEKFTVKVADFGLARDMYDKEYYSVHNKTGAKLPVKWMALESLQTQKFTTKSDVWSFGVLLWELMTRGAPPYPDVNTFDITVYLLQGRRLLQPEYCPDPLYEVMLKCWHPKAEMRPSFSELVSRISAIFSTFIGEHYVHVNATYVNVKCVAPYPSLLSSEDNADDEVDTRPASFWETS
(§2) Peptide substrates were labeled with two fluorophores. The two fluorohores used were coumarin (donor) and fluorecein (acceptor), and each of the peptides was bearing one at one end, and one at the other end, which made up fluorescence resonance energy transfer (FRET) pair peptides.
(§3) In a primary reaction, the FRET-peptides were submitted to a phosphorylation reaction, in which one of adenosine triphosphate (ATP)'s phosphate groups was transferred to the peptide in the presence of kinase. When kinase inhibition takes place, the peptide will not be phosphorylated. In a secondary reaction, both the phosphorylated FRET-peptides and the non-phosphorylated FRET-peptides were reacted with a development reagent. It has been observed that non-phosphorylated FRET-peptides were cleaved, whereas the phosphorylted FRET-peptide remained intact.
(§4) Cleavage disrupts FRET between the donor (i.e., coumarin) and acceptor (i.e., fluorescein) fluorophores on the FRET-peptide, whereas uncleaved, phosphorylated FRET-peptides maintain FRET. A ratiometric method, which calculates the Emission Ratio of donor emission to acceptor emission after excitation of the donor fluorophore at 400 nm, is used to quantitate reaction progress, as shown in the equation below. [formula]
(§5) A significant benefit of this ratiometric method for quantitating reaction progress is the elimination of well-to-well variations in FRET-peptide concentration and signal intensities. As a result, the assay yields very high Z'factor values (>0.7) at a low percent phosphorylation. Both cleaved and uncleaved FRET-peptides contribute to the fluorescence signals and therefore to the Emission Ratio. The extent of phosphorylation of the FRET-peptide can be calculated from the Emission Ratio. The Emission Ratio will remain low if the FRET-peptide is phosphorylated (i.e., no kinase inhibition) and will be high if the FRET-peptide is non-phosphorylated (i.e., kinase inhibition).
(§6) The Test Compounds were screened in 1% DMSO. For 10 point titrations, 3-fold serial dilutions were prepared from the starting concentration.
(§7) All Peptide/Kinase Mixtures were diluted to a 2X working concentration in the appropriate Kinase Buffer (50 mM HEPES pH 7.5, 0.01% BRIJ-35, 10 mM MgCl2, 1 mM […]).
(§8) All ATP Solutions were diluted to a 4X working concentration in Kinase Buffer. ATP Km apparent was previously determined using another assay.
(§9) 2.5 µL - 4X Test Compound or 100 nL 100X plus 2.4 µL kinase buffer were mixed together with 2. 5 µL - 2X Peptide/Kinase Mixture and 3. 2.5 µL - 4X ATP Solution.
(§10) The solution was plate-shaked for 30 seconds, then incubated 60 minutes at room temperature for kinase reaction. 5 µL of Development Reagent Solution were then added, followed by a 30-second plate shake and a 60-minute Development Reaction incubation at room temperature. The results were read on a fluorescence plate reader and the data was analyzed.
(§11) The compounds that show the highest Emission Ratio are the ones that also show the highest protein kinase inhibition properties.

The next assay deals with PDGFRB (PDGFR beta) (Homo sapiens, UniProt P09619). As for the experimental part:
as §1, §2, §3, §4, §5, §6, §7, §8, §9, §10, §11

The target in the next assay is T1, IKBKB (IKK beta) (Homo sapiens, UniProt O14920).
T1 sequence (O14920 1-756): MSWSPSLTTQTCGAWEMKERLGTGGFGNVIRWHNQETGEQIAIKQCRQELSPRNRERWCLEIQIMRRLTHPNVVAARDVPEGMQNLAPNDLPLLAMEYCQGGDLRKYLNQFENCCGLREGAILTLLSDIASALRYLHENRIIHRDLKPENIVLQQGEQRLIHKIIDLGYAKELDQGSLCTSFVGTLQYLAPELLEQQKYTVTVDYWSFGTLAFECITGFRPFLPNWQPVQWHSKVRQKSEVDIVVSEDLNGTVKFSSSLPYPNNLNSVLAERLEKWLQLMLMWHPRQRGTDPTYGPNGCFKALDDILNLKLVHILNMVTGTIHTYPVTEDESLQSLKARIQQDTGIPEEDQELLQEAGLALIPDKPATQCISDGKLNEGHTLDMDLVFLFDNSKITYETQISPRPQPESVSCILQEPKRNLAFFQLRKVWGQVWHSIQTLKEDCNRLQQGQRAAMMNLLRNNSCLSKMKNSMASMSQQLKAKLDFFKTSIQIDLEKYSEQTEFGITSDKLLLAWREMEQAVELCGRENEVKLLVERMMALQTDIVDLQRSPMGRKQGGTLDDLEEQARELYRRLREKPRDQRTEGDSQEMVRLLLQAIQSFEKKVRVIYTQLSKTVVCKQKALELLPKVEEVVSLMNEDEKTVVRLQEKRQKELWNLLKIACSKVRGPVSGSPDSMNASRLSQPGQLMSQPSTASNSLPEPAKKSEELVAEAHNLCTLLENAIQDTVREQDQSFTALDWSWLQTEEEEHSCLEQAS
As for the experimental part:
as §1, §2, §3, §4, §5, §6, §7, §8, §9, §10, §11

The target in the next assay is PRKACA (PKA) (Homo sapiens, UniProt P17612). As for the experimental part: as §1, §2, §3, §4, §5, §6, §7, §8, §9, §10, §11
The target of the next assay is PIM1 (Homo sapiens, UniProt P11309). As for the experimental part:
as §1, §2, §3, §4, §5, §6, §7, §8, §9, §10, §11

A further assay concerns the target TEK (Tie2) (Homo sapiens, UniProt Q02763). As to the method: as §1, §2, §3, §4, §5, §6, §7, §8, §9, §10, §11
Another assay addresses LCK (Homo sapiens, UniProt P06239). As to the method:
as §1, §2, §3, §4, §5, §6, §7, §8, §9, §10, §11

For a further assay, the target named is T2, ACVR1B (ALK4) (Homo sapiens, UniProt P36896).
T2 sequence (P36896 24-505): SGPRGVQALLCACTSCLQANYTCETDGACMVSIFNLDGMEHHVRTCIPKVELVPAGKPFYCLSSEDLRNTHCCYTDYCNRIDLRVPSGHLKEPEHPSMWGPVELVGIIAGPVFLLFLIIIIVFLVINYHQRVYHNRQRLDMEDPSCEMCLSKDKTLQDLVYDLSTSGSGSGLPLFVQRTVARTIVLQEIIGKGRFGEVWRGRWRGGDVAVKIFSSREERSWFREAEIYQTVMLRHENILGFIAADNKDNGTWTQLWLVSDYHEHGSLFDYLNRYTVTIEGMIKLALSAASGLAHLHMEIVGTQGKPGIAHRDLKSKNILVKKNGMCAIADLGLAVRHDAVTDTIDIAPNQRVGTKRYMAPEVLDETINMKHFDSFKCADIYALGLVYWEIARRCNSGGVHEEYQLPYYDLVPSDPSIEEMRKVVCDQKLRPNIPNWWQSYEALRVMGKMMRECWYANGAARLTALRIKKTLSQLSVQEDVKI
As for the experimental part:
as §1, §2, §3, §4, §5, §6, §7, §8, §9, §10, §11

Another assay addresses PAK4 (Homo sapiens, UniProt O96013). As for the experimental part: as §1, §2, §3, §4, §5, §6, §7, §8, §9, §10, §11
The target of the next assay is GSK3B (GSK3 beta) (Homo sapiens, UniProt P49841). As to the method:
as §1, §2, §3, §4, §5, §6, §7, §8, §9, §10, §11

Molecules are shown by their SMILES.

Chain of LCK (P06239 whole entry, species assumed): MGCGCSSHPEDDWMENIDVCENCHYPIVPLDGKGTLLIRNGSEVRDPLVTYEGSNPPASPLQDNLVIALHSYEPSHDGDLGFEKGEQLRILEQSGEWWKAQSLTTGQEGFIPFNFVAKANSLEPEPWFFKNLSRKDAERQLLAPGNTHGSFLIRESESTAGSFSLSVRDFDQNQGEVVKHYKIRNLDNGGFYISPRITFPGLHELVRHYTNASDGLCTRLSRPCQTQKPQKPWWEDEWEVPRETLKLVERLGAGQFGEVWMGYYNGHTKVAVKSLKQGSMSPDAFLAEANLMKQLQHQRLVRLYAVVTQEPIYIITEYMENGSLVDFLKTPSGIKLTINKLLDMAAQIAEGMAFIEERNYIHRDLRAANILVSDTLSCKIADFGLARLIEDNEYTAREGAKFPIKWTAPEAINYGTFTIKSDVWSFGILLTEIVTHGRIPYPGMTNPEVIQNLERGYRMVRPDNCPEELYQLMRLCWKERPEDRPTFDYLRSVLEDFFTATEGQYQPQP
Chain of GSK3B (GSK3 beta) (P49841 whole entry, species assumed): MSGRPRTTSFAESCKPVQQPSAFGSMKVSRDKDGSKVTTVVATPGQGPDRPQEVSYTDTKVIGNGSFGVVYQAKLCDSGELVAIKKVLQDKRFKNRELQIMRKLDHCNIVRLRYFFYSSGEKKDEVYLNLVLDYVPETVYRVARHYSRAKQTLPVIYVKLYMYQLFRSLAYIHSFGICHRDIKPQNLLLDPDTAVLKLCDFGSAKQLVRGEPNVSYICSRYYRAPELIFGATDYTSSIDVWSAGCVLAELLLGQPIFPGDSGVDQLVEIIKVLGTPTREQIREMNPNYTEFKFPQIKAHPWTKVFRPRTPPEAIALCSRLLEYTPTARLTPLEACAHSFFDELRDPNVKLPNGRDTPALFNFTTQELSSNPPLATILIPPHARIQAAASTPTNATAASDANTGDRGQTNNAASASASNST
Chain of PIM1 (P11309 whole entry, species assumed): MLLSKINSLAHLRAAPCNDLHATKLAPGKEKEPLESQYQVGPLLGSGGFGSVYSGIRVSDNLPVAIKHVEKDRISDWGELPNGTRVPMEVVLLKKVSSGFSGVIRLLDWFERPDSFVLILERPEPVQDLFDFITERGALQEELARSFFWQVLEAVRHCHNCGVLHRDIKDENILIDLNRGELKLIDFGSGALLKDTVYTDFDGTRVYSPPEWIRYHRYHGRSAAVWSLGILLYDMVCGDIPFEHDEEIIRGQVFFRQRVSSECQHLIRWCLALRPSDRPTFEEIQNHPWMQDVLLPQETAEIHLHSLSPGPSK
Chain of PAK4 (O96013 whole entry, species assumed): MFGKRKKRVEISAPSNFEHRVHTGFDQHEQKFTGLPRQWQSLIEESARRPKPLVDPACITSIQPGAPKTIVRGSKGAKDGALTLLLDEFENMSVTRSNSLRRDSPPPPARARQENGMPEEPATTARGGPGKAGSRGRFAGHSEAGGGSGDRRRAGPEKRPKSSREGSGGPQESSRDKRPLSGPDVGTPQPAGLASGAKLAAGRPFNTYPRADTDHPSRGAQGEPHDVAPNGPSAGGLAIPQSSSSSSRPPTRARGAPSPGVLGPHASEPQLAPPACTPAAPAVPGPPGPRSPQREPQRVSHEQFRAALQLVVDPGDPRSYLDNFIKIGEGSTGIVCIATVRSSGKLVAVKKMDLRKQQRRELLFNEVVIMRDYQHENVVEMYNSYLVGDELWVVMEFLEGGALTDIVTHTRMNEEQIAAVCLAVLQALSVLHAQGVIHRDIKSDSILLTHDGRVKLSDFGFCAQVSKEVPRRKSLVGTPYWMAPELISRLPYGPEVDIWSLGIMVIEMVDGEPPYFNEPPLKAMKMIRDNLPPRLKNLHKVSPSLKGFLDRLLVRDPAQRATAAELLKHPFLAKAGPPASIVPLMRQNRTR
Chain of PDGFRB (PDGFR beta) (P09619 33-1106, species assumed): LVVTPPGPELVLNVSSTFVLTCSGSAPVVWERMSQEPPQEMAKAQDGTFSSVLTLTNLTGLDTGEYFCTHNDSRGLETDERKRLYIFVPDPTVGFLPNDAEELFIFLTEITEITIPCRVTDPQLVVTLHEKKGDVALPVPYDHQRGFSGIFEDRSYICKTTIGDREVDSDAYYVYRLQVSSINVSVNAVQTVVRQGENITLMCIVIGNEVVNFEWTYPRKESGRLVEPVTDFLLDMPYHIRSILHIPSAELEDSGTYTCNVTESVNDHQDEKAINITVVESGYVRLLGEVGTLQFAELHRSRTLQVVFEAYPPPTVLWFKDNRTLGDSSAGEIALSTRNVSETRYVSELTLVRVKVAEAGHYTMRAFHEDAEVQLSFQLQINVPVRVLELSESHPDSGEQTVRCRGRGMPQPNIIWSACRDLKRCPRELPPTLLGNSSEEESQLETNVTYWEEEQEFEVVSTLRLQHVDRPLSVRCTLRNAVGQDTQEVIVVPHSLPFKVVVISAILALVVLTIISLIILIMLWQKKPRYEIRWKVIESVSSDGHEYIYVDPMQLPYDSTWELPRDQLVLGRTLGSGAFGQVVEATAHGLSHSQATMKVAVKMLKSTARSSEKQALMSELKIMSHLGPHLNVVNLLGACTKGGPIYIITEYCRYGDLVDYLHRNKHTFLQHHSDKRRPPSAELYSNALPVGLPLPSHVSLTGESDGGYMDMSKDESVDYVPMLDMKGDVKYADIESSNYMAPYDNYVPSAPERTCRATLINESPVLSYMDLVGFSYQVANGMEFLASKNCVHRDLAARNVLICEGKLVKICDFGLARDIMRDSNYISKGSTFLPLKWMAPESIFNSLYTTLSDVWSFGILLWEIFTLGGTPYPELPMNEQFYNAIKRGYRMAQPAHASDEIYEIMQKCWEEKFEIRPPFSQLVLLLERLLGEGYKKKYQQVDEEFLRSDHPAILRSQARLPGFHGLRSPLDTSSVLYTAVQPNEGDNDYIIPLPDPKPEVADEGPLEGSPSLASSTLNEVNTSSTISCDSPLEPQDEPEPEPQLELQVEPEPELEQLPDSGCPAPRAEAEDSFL

On to `Nc1ncnc2c1ncn2[C@@H]1O[C@H](COC(=O)N2CCN(Cc3ccccc3)CC2CO)[C@@H](O)[C@H]1O` (stereo partly shown) [Compound C13], for which the inhibition (as a rule, the relative decrease from the control value, in per cent) at 10 µM was 0% against MET (cMet); 6% against PDGFRB (PDGFR beta); -7% at IKBKB (IKK beta); -1% on PRKACA (PKA); 1% on PIM1; 5% against TEK (Tie2). The inhibition at 10 µM against LCK is 44%; at ACVR1B (ALK4) it was 7%; against PAK4, 7%; against GSK3B (GSK3 beta), 4%.
As to `Nc1ncnc2c1ncn2[C@@H]1O[C@H](COC(=O)N2CCC[C@H]2CO)[C@@H](O)[C@H]1O` [Compound C9], the inhibition at 10 µM is -11% on MET (cMet); -1% on PDGFRB (PDGFR beta); -8% on IKBKB (IKK beta); -6% against PRKACA (PKA); 3% against PIM1; -4% at TEK (Tie2). The inhibition at 10 µM against LCK is 19%; at ACVR1B (ALK4) it was -5%; on PAK4 it was 1%; on GSK3B (GSK3 beta) it was -6%.
Take `Nc1ncnc2c1ncn2[C@@H]1O[C@H](COC(=O)NCCN2CCCC2=O)[C@@H](O)[C@H]1O` [Compound C22]: the inhibition at 10 µM against MET (cMet) was 1%; against PDGFRB (PDGFR beta), 4%; at IKBKB (IKK beta) it was -13%; against PRKACA (PKA), 0%; against PIM1, -6%; against TEK (Tie2), 0%. For the same molecule, the inhibition at 10 µM is 15% against LCK, 3% at ACVR1B (ALK4), 7% on PAK4 and 3% on GSK3B (GSK3 beta).
Consider `C[C@@H](NC(=O)OC[C@H]1O[C@@H](n2cnc3c(N)ncnc32)[C@H](O)[C@@H]1O)c1ccc(Cl)cc1` [Compound C4], for which the inhibition at 10 µM at MET (cMet) was 3%; against PDGFRB (PDGFR beta), 5%; on IKBKB (IKK beta), -6%; against PRKACA (PKA), 20%; at PIM1, -8%; at TEK (Tie2), 12%. Besides, the inhibition at 10 µM against LCK was found to be 60%; against ACVR1B (ALK4), 1%; against PAK4, 12%; on GSK3B (GSK3 beta), 8%.
Consider `Nc1ncnc2c1ncn2[C@@H]1O[C@H](COC(=O)N[C@@H]2CCN(Cc3ccccc3)C2)[C@@H](O)[C@H]1O` [Compound C10], for which the inhibition at 10 µM against MET (cMet) was -1%; against PDGFRB (PDGFR beta), 7%; against IKBKB (IKK beta), -11%; at PRKACA (PKA), 10%; against PIM1 it was 1%; against TEK (Tie2), 6%. The inhibition at 10 µM against LCK was 62%; at ACVR1B (ALK4) it was 4%; on PAK4 it was 14%; against GSK3B (GSK3 beta), 8%.
In the case of `N#CCCN1CCN(C(=O)OC[C@H]2O[C@@H](n3cnc4c(N)ncnc43)[C@H](O)[C@@H]2O)CC1` [Compound C70], the inhibition at 10 µM was -2% against MET (cMet); 4% at PDGFRB (PDGFR beta); -12% against IKBKB (IKK beta); -4% on PRKACA (PKA); 5% against PIM1; 1% on TEK (Tie2). Also, the inhibition at 10 µM against LCK came out at 11%; at ACVR1B (ALK4) it was 1%; at PAK4, 4%; on GSK3B (GSK3 beta), 0%.
For the molecule `Nc1ncnc2c1ncn2[C@@H]1O[C@H](COC(=O)N2CCS(=O)(=O)CC2)[C@@H](O)[C@H]1O` [Compound C100], the inhibition at 10 µM against MET (cMet) was -3%; on PDGFRB (PDGFR beta) it was 4%; at IKBKB (IKK beta), -9%; on PRKACA (PKA), -3%; against PIM1, -1%; against TEK (Tie2), 2%. Besides, the inhibition at 10 µM on LCK amounted to 9%; on ACVR1B (ALK4), 3%; on PAK4 it was 2%; against GSK3B (GSK3 beta), 5%.
